Values quoted from earlier work, collected in patent US20150297556A1 (priority 2014, published 2015).

Q: Which human pulmonary uptake does the source give for “(1S,5S)-2,6,6-Trimethylbicyclo[3.1.1]hept-2-ene ((−)-α-Pinene)” here?
A: 60%
